Here are results for 15 molecules from article PMC8958505, “Discovery of Potential Neuroprotective Agents against Paclitaxel-Induced Peripheral Neuropathy” (Journal of Medicinal Chemistry, 2022).

The subject of assay [1] is primary cortical neurons. Briefly: Synaptogenesis assay of primary cortical neurons (image-based HCS) against paclitaxel-induced neurotoxicity. Type of assay: cell-based, mouse. To be noted: for activity at 0.01 µM / activity at 1 µM: Mus musculus, Primary cortical neuron; for activity at 0.01 µM: read-out: A: Synaptogenesis (% of control) of test compound (10 nM) + paclitaxel (1 μM); for activity at 1 µM: read-out: B: Synaptogenesis (% of control) of test compound (1000 nM) + paclitaxel (1 μM); for attenuation of synaptogenesis inhibited by paclitaxel (in words): test compound 10 and 1000 nM prior to paclitaxel 1 μM, Figure 1A. The text has this: (§1) Herein, we wish to report that an in vitro neurite outgrowth assay of cortical neurons integrated with an image-based high-content screening (HCS) platform is used to evaluate a commercially available library of 78 minoxidil-related derivatives,[22] leading to the identification of a series of analogues able to prevent or alleviate paclitaxel-induced neurotoxicity. The project began with screening compounds with the primary culture of cortical neurons from neonatal mice. More specifically, cerebral cortex neurons cultured from P0 C57BL/6J mouse pups were incubated with a test compound (10 and 1000 nM) prior to paclitaxel (1 μM) treatment. Subsequently, both neurite outgrowth and synaptogenesis were measured to evaluate the test compounds’ neuroprotective capacity. […] This unique feature is preserved for the core-structure screening of our in-house library in the following subject. Moreover, the substituent at the C4 position appears flexible in terms of structural diversity. Collectively, CSV0A024807, the only one displaying the best neuroprotective potency on both neurite outgrowth and synaptogenesis assays, was thus elected as a potential hit compound for further development.
(§2) Primary cortical or DRG cells were fixed with 4% paraformaldehyde for 15 min following compound and paclitaxel treatment. After washing with PBS, the fixed cells were permeabilized with PBS containing 0.05% Triton X-100 for 20 min and then blocked with commercial blocking buffer (#GTX30963; GeneTex, USA) at room temperature for 1 h. Subsequently, the cortical cells were stained for the extending processes and synaptic puncta by using anti-MAP2 (#MBS502140, 1:500; Mybiosource, USA) and anti-synaptophysin (#ab32127, 1:500; Abcam, UK) overnight. DRG cells were stained for the neurite and neuron nucleus by using anti-β III tubulin (#D71G9, 1:600; Cell Signaling, USA) and anti-NeuN monoclonal antibody (#MAB377, 1:400; Millipore, USA) overnight. On the second day, the samples were washed for 30 min with wash buffer and incubated with secondary antibodies (Alexa-488, 647 1:600; Thermo Fisher, USA) and 4 μg/mL Hoechst 33258 (#94403-1ML, 1:100; Merck, USA) at room temperature for 1 h. In the initial experiments of screening the potential neuroprotective compound for CIPN, ImageXpress^Micro (IXM) high-content imaging system (Molecular Devices, USA) driven by MetaXpress software was used. Images of treated cells were automatically acquired by using a 10× objective. Twenty-one images per well were taken in each of three channels (DAPI, FITC, and Cy5) to create a whole view of the entire neural network. The integrity of the neural network was evaluated using TIF images by importing them into MetaXpress software for analysis using the module for multiparameter, such as Neurite Outgrowth, Cell Scoring, and Transfluor. Furthermore, the score of synaptogenesis was analyzed in AcuityXpress software (Molecular Devices, USA).

The subject of assay [2] is primary cortical neurons. As to the kind of experiment: Neurite outgrowth assay of primary cortical neurons (image-based HCS) against paclitaxel-induced neurotoxicity. The assay is classed as cell-based, mouse. Conditions: Mus musculus, Primary cortical neuron; for activity at 0.01 µM: read-out: C: Neurite outgrowth (% of control) of test compound (10 nM) + paclitaxel (1 μM); for activity at 1 µM: read-out: D: Neurite outgrowth (% of control) of test compound (1000 nM) + paclitaxel (1 μM).
Excerpt: as §1, §2

[3] abbreviates: test compound 10 nM + paclitaxel 1 μM, mean ± SE.
[4] abbreviates: test compound 1000 nM + paclitaxel 1 μM, mean ± SE.

On to `CCCN(CCC)c1cc(N/N=C/c2ccccc2OC)nc(N(CCC)CCC)n1` [CSV0A011999], for which the activity at 0.01 µM in the assay on primary cortical neurons [1] (setting [3]) was found to be 33 ± 4%; with primary cortical neurons [2] (setting [3]), 45 ± 5%. In addition, the figures for the activity at 1 µM with primary cortical neurons [1] (setting [4]) and in the assay on primary cortical neurons [2] (setting [4]) were 37 ± 2% and 53 ± 3%, respectively.
For the molecule `Oc1ccc(/C=N/Nc2cc(N3CCOCC3)nc(N3CCOCC3)n2)cc1` [CSV0A013029], the activity at 0.01 µM in the assay on primary cortical neurons [1] (setting [3]) was found to be 72 ± 2%; in the assay with primary cortical neurons [2] (setting [3]), 58 ± 2%. The activity at 1 µM was 84 ± 6% in the assay with primary cortical neurons [1] (setting [4]) and 54 ± 5% with primary cortical neurons [2] (setting [4]). Further, in the assay with primary cortical neurons [1], the “attenuation of synaptogenesis inhibited by paclitaxel (in words)” value is given as “significantly attenuated”.
In the case of `Oc1ccc(Cl)cc1/C=N/Nc1cc(N2CCCC2)nc(N2CCCC2)n1` [CSV0A041619], in the assay with primary cortical neurons [1], the activity at 0.01 µM stood at 54 ± 0.03% and the activity at 1 µM is 62 ± 2%. In addition, in the assay with primary cortical neurons [2], the activity at 0.01 µM is 62 ± 2% and the activity at 1 µM worked out at 61 ± 2%.
For the molecule `CCN(CC)c1ccc(/C=N/Nc2cc(N3CCCCC3)nc(N3CCCCC3)n2)cc1` [CSV0A023090], the activity at 0.01 µM with primary cortical neurons [1] (setting [3]) was 82 ± 4%; in the assay with primary cortical neurons [2] (setting [3]), 57 ± 4%. Besides, the figures for the activity at 1 µM in the assay with primary cortical neurons [1] (setting [4]) and in the assay on primary cortical neurons [2] (setting [4]) were 86 ± 0.4% and 58 ± 3%, respectively.
In the case of `CCN(CC)c1cc(NNC(=O)CCc2ccccc2)nc(N(CC)CC)n1` [CSV0B009488], the values for the activity at 0.01 µM in the assay on primary cortical neurons [1] (setting [3]) and with primary cortical neurons [2] (setting [3]) were 38 ± 3% and 35 ± 4%, respectively. The activity at 1 µM was found to be 34 ± 3% with primary cortical neurons [1] (setting [4]) and 44 ± 3% in the assay with primary cortical neurons [2] (setting [4]).
On to `Oc1cccc(/C=N/Nc2cc(N3CCCC3)nc(N3CCCC3)n2)c1` [CSV0A055770], for which the activity at 0.01 µM stood at 24 ± 2% in the assay with primary cortical neurons [1] (setting [3]) and 82 ± 4% with primary cortical neurons [2] (setting [3]). The activity at 1 µM was found to be 25 ± 2% in the assay on primary cortical neurons [1] (setting [4]) and 75 ± 4% with primary cortical neurons [2] (setting [4]).
Turning to `COc1ccccc1/C=N/Nc1cc(N2CCCCC2)nc(N2CCCCC2)n1` [CSV0A061666], the figures for the activity at 0.01 µM in the assay on primary cortical neurons [1] (setting [3]) and in the assay on primary cortical neurons [2] (setting [3]) were 41 ± 1% and 91 ± 3%, respectively. Moreover, the activity at 1 µM in the assay on primary cortical neurons [1] (setting [4]) turned out to be 42 ± 4%; with primary cortical neurons [2] (setting [4]) it was 89 ± 7%.
Consider `Clc1ccc(/C=N/Nc2cc(N3CCCCCC3)nc(N3CCCCCC3)n2)cc1` [CSV0A027457], for which the figures for the activity at 0.01 µM in the assay with primary cortical neurons [1] (setting [3]) and in the assay on primary cortical neurons [2] (setting [3]) were 51 ± 4% and 62 ± 4%, respectively. The activity at 1 µM in the assay with primary cortical neurons [1] (setting [4]) worked out at 39 ± 4%; with primary cortical neurons [2] (setting [4]), 51 ± 4%.
In the case of `CN(C)c1cc(N/N=C/c2cccc(O)c2)nc(N(C)C)n1` [CSV0A021190], the activity at 0.01 µM is 37 ± 1% in the assay with primary cortical neurons [1] (setting [3]) and 43 ± 1% with primary cortical neurons [2] (setting [3]). For the same molecule, the results for the activity at 1 µM in the assay with primary cortical neurons [1] (setting [4]) and with primary cortical neurons [2] (setting [4]) were 45 ± 1% and 50 ± 2%, respectively.
On to `Oc1ccccc1/C=N/Nc1cc(N2CCCCC2)nc(N2CCCCC2)n1` [CSV0B023377], for which the activity at 0.01 µM worked out at 42 ± 1% in the assay on primary cortical neurons [1] (setting [3]) and 57 ± 2% in the assay with primary cortical neurons [2] (setting [3]). Also, the activity at 1 µM is 42 ± 3% in the assay with primary cortical neurons [1] (setting [4]) and 57 ± 4% in the assay on primary cortical neurons [2] (setting [4]).
Turning to `CN(C)c1cc(NNC(=O)c2ccc(Cl)cc2)nc(N(C)C)n1` [CSV0A023089], the figures for the activity at 0.01 µM with primary cortical neurons [1] (setting [3]) and with primary cortical neurons [2] (setting [3]) were 38 ± 3% and 47 ± 2%, respectively. Also, the activity at 1 µM in the assay on primary cortical neurons [1] (setting [4]) is 39 ± 6%; with primary cortical neurons [2] (setting [4]), 50 ± 5%.
The like results for `Clc1ccc(/C=N/Nc2cc(N3CCOCC3)nc(N3CCOCC3)n2)cc1` [CSV0A024808] were, in that order, 27 ± 1%, 91 ± 1%, 25 ± 1% and 89 ± 4%.
For the molecule `CN(C)c1cc(N/N=C/c2cccs2)nc(N(C)C)n1` [CSV0A055769], the results for the activity at 0.01 µM in the assay with primary cortical neurons [1] (setting [3]) and in the assay with primary cortical neurons [2] (setting [3]) were 83 ± 1% and 68 ± 3%, respectively. In addition, the activity at 1 µM amounted to 97 ± 8% in the assay on primary cortical neurons [1] (setting [4]) and 62 ± 2% with primary cortical neurons [2] (setting [4]). Also, in the assay on primary cortical neurons [1], the “attenuation of synaptogenesis inhibited by paclitaxel (in words)” value is on record as “significantly attenuated”.
For the molecule `COc1cc(/C=N/Nc2cc(N(C)C)nc(N(C)C)n2)ccc1O` [CSV0A055768], in the assay on primary cortical neurons [1], the activity at 0.01 µM is 35 ± 4% and the activity at 1 µM worked out at 33 ± 0.2%. For the same molecule, in the assay on primary cortical neurons [2], the activity at 0.01 µM was 71 ± 2% and the activity at 1 µM stood at 74 ± 6%.
As for `O=[N+]([O-])c1ccc(/C=N/Nc2cc(N3CCCC3)nc(N3CCCC3)n2)cc1` [CSV0A024812], the activity at 0.01 µM is 55 ± 6% in the assay with primary cortical neurons [1] (setting [3]) and 53 ± 3% in the assay with primary cortical neurons [2] (setting [3]). For the same molecule, the activity at 1 µM in the assay on primary cortical neurons [1] (setting [4]) is 62 ± 3%; in the assay on primary cortical neurons [2] (setting [4]), 60 ± 1%.
